Key:
[1] = system: A431 cells; test: A431 cell proliferation inhibition (SRB); assay type: cell-based; settings: Homo sapiens, A-431, wild-type EGFR, 72 hours
[2] = system: BaF3-EGFR^L858R/T790M/C797S cells; test: BaF3 cell proliferation inhibition experiment (CCK-8); assay type: cell-based; settings: Ba/F3 EGFR-L858R, 72 hours
[3] = Detection of oral plasma exposure in rats; assay type: in vivo; settings: rat, SD rats, p.o. 10 mg/kg
Method: Detection of oral plasma exposure in rats: The compounds of the present invention have good oral in-vivo exposure in rats
After a single dose of 10 mg/kg oral administration of the compound to be tested in SD rats, blood samples were collected at different time points.
Standard curve and quality control sample preparation processing: The mixed reserve solution of the compound to be tested was taken and diluted with 50% methanol water into standard working solutions containing respective compounds with concentrations of 20, 40, 100, 200, 400, 1000, 2000, 4000, 10000, and 20000 ng/mL, as well as 60, 600, and 16000 ng/mL quality control working solutions. […] of a blank matrix was taken. […] of the standard curve working solutions and the quality control working solutions were added to prepare standard curves containing respective compounds with concentrations of 1.00, 2.00, 5.00, 10.00, 20.00, 50.00, 100.00, 200.00, 500.00, and 1000.00 ng/mL, as well as quality control samples with concentrations of 3.00, 30.00, and 800.00 ng/mL, respectively. 400 μL of acetonitrile (containing internal standard Verpmil of 2 ng/mL) was added. After vortex oscillation at 700 rcf for 10 minutes, centrifugation was conducted at 3300 rcf at 4° C. for 10 minutes. The supernatant was taken for LC-MS/MS analysis.
Unknown sample preparation processing: 50 μL of the sample to be tested was taken. 400 μL of acetonitrile (containing internal standard Verpmil of 2 ng/mL) was added. After vortex oscillation at 700 rcf for 10 minutes, centrifugation was conducted at 3300 rcf and 4° C. for 10 minutes. The supernatant was taken for LC-MS/MS analysis.

| SMILES | IC50 [1] [nM] | IC50 [2] [nM] | AUC(0-t) [3] [ng·h/mL] | Cmax [3] [ng/mL] | Tmax [3] [h] | half-life [3] [h] | AUC(0-inf) ([3]; read-out: AUCINF—obs) [ng·h/mL] |
| --- | --- | --- | --- | --- | --- | --- | --- |
| CCc1cc(Nc2ncc(Cl)c(Nc3ccc(C)c(C)c3P(C)(C)=O)n2)c(OC)cc1N1CCC(N2CCN(C)CC2)CC1 [Comparative Compound A, reference compound] | 207 | 47.3 | – | – | – | – | – |
| CCc1cc(Nc2ncc(Cl)c(Nc3ccc(C)c(C)c3P(C)(C)=O)n2)c(OC)cc1N1CCC2(CC1)CC(N(C)C)C2 [Compound 6, (6-((5-chloro-2-((4-(2-(dimethylamino)-7-azaspiro[3.5]nonan-7-yl)-5-ethyl-2-methoxyphenyl)amino)pyrimidin-4-yl)amino)-2,3-dimethylphenyl)dimethylphosphine oxide] | > 1000 | 67.6 | 13800 | 866 | 8 | 9.72 | 17700 |
| CCc1cc(Nc2ncc(Cl)c(Nc3ccc(C)c(C)c3P(C)(C)=O)n2)c(OC)cc1N1CC2(CCN(C)CC2)C1 [Compound 24, (6-((5-Chloro-2-((5-ethyl-2-methoxy-4-(7-methyl-2,7-diazaspiro[3.5]non-2-yl)phenyl)amino)pyrimidin-4-yl)amino)-2,3-dimethylphenyl)dimethylphosphine oxide] | > 1000 | 43.3 | 7870 | 505 | 9 | 9.48 | – |
| CCc1cc(Nc2ncc(Cl)c(Nc3ccc(C)c(C)c3P(C)(C)=O)n2)c(OC)cc1N1CCC(N2C[C@H]3CC[C@@H](C2)N3C)CC1 [Compound 51, (6-((5-chloro-2-((5-ethyl-2-methoxy-4-(4-((1R,5S)-8-methyl-3,8-diazabicyclo[3.2.1]octan-3-yl)piperidin-1-yl)phenyl)amino)pyrimidin-4-yl)amino)-2,3-dimethylphenyl)dimethylphosphine oxide] | 745 | 131 | 20700 | 1220 | 4 | 9.47 | – |

Reference: patent US20250101052A1, “COMPOUND FOR EGFR KINASE INHIBITOR, COMPOSITION, AND USE THEREOF” (INNOVATION INSTITUTE FOR ARTIFICIAL INTELLIGENCE IN …, priority 2021, published 2025)
